Assays:
Assay type in all cases: functional, cell-based
[1] = molecular target: Prostaglandin E2 receptor EP2 subtype (Homo sapiens, UniProt P43116); test: Agonist activity at human EP2 expressed in HEK293 cells assessed as increase in cAMP level incubated for 20 mins measured after 60 mins addition of cAMP detect reagent by HTRF analysis
[2] = molecular target: T1, Prostaglandin D2 receptor (Homo sapiens, UniProt Q13258); test: Agonist activity at human DP1 expressed in human 1321N1 cells assessed as increase in cAMP level incubated for 20 mins measured after 60 mins addition of cAMP detect reagent by HTRF analysis
T1 sequence (Q13258 whole entry): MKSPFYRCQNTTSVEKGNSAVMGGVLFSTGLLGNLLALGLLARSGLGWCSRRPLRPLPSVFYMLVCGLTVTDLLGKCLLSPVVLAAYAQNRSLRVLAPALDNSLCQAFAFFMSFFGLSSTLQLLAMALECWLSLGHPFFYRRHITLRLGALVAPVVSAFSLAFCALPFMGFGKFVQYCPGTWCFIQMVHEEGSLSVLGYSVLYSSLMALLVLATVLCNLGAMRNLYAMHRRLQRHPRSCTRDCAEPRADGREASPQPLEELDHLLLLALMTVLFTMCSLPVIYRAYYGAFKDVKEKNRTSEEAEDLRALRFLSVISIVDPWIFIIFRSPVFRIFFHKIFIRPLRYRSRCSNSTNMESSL

[3] = molecular target: T2, Prostaglandin E2 receptor EP1 subtype (Homo sapiens, UniProt P34995); test: Agonist activity at human EP1 expressed in HEK293 cells assessed as increase in cAMP level incubated for 20 mins measured after 60 mins addition of cAMP detect reagent by HTRF analysis
T2 sequence (P34995 whole entry): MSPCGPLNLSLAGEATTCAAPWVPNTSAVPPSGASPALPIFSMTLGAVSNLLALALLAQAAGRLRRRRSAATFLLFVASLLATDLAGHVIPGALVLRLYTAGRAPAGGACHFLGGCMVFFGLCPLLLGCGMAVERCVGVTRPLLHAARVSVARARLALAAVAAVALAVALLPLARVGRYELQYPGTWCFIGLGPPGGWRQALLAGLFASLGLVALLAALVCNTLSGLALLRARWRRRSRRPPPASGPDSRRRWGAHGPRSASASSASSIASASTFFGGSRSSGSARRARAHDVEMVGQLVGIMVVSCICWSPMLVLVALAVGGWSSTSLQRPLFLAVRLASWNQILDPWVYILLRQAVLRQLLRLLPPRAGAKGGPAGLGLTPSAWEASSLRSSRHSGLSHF

Prostacyclin receptor = Prostacyclin receptor (Homo sapiens, UniProt P43119); test: Agonist activity at human IP expressed in HEK293 cells assessed as increase in cAMP level incubated for 20 mins measured after 60 mins addition of cAMP detect reagent by HTRF analysis
Prostacyclin receptor, sequence (P43119 whole entry): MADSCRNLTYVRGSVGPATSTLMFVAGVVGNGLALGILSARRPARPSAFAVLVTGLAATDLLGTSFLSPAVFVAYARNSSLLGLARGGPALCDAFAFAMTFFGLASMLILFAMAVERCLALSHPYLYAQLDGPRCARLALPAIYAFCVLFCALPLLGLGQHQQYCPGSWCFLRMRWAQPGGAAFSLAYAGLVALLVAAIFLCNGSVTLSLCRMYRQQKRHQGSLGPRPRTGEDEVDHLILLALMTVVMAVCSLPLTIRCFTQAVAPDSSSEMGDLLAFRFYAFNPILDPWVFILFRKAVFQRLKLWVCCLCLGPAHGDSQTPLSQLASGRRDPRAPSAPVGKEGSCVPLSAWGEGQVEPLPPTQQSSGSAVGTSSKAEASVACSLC

Prostaglandin E2 receptor EP2 subtype, sequence (P43116 whole entry): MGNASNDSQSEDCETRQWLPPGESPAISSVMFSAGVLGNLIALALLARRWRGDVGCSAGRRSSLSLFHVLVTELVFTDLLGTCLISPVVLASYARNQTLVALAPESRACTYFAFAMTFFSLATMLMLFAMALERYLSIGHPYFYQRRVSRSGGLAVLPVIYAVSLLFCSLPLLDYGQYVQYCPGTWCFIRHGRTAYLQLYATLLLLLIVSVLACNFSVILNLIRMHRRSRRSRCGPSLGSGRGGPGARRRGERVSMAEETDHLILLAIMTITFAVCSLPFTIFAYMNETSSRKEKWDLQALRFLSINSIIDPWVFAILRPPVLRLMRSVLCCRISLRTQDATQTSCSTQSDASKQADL

| SMILES | EC50 [1] [nM] | EC50 [2] [nM] | EC50 [3] [nM] | EC50 (Prostacyclin receptor) [nM] |
| --- | --- | --- | --- | --- |
| CCCCC[C@H](O)CC[C@@H]1[C@H]2Cc3cccc(OCC(=O)O)c3C[C@H]2C[C@H]1O [TREPROSTINIL] | 6.2 | 0.6 | 285 | 1.9 |
| CC#CCC(C)[C@H](O)/C=C/[C@@H]1[C@H]2C/C(=C/CCCC(=O)O)C[C@H]2C[C@H]1O (some centres not stated) [ILOPROST] | 2090 | 2060 | 0.3 |  |
